Paper PMC3283556, “The Activities of Current Antimalarial Drugs on the Life Cycle Stages of Plasmodium: A Comparative Study with Human and Rodent Parasites” (PLoS Medicine, 2012)
Like-named read-outs stand apart in the source and are kept apart here.

How the values were obtained:
[1] = system: P. falciparum asexual blood stage parasites (strains NF54, D6, K1, W2, 7G8, TM90C2A, V1/S); assay: [3H]-hypoxanthine incorporation growth inhibition assay, asexual blood stage; format: cell-based, Plasmodium falciparum; details: for IC50: Plasmodium falciparum; for fold reduction in potency: against all drug-resistant strains containing the mutated chloroquine transporter (PfCRT); for resistance / retention of potency against resistant strains: drug-resistant strains
Method: In vitro antimalarial activity was measured using the [^3H]-hypoxanthine incorporation assay with various strains of P. falciparum obtained from MR4. Results were expressed as the concentration resulting in 50% inhibition (IC50).
The half-maximal inhibitory concentrations (IC50) were determined for each molecule (Table S2).
Figure 2 The potencies of selected antimalarials against asexual blood stages. Main classes of antimalarials were tested against the blood stage of seven Plasmodium falciparum strains in the [^3H]hypoxanthine incorporation assay as described in Vennerstrom et al.. The strains tested here (obtained from MR4) were two drug-sensitive strains NF54 and D6 and five drug-resistant strains: K1, resistant to chloroquine (CQ) and pyrimethamine (PYR), origin Thailand, carries mutations in genes pfmdr1, pfcrt, pfdhfr, pfdhps; W2, resistant to CQ, PYR, quinine, cycloguanil, and sulfadoxine, origin Vietnam; 7G8, resistant to CQ and PYR, origin Brazil; TM90C2A, resistant to CQ, PYR, and MFQ, origin Thailand; and V1/S, resistant to CQ, PYR and cycloguanil, origin Vietnam. Results are expressed as the concentration resulting in 50% growth inhibition (IC50).Values are means of ≥3 independent experiments. (A) Endoperoxides. (B) 4-AQs. (C) 8-AQs and amino alcohols. (D) Antifolates, antibiotics, and others.

[2] = system: P. yoelii liver stage parasites (liver schizonts); assay: P. yoelii liver stage assay in HepG2 cells (EEF immunofluorescence); format: cell-based, Plasmodium yoelii; details: for IC50: Plasmodium yoelii; for potency range against liver stages: dose response
Method: (§1) 7.5×10^3 HepG2 cells in 50 µl of medium (1.5×10^5 cells/ml) were seeded in 384 well plates (Aurora 384 IQ-EB Black/Clear Plates) 20–26 h prior to the actual infection. 2 h prior to infection, 50 nl of compound in DMSO (0.1% final DMSO concentration per well) were transferred with a PinTool (GNF Systems) into the assay plates (10 µM final concentration). P. yoelii sporozoites were freshly dissected from infected A. stephensi mosquito salivary glands and filtered twice with a 40-µm strainer. The HepG2 cells were then infected with 8×10^3 sporozoites per well. After infection and 1-h incubation at 37°C, the cultures were washed, new media and compound added, and further incubated with 5-fold increased concentration of penicillin/streptomycin for 48 h at 37°C before exoerythrocytic forms (EEFs) quantification of infected cells by immunofluorescence.
After washing with 1×PBS and fixation of the cells with 4% paraformaldehyde solution (EMS), membranes were permeabilised with 0.5% Triton-X-100 (Thermo Fisher Scientific) and EEFs were stained using a mouse polyclonal serum raised against the Plasmodium heat shock protein 70 (HSP70), an Alexa goat antimouse IgG, Fca-specific DyLight 649 secondary antibody (Invitrogen), and the Hoechst 33342 nucleic acid dye (Invitrogen). Stained EEFs were then quantified using the Opera Confocal High Content Screening system (PerkinElmer). Images were collected using a 20× magnification at a binning of 2 using a 365 Xeon arc lamp illumination to detect the nuclei and 635-nm laser line to excite DyLight649.
(§2) High-content imaging of infected HepG2-CD81 cells was performed as described in Meister et al.. Wells were analysed using a custom Acapella (PerkinElmer) script parameterized for this assay. In brief, images from fields inside the well were first discarded as out of focus when the intensity in the nuclear area was too low. Then hepatic cells were counted by detecting the nuclei labelled with Hoechst 33342 and parasites were segmented using the HSP70 immuno-labelling. Morphology-based (e.g., area, roundness) and intensity-based features were calculated for each object detected including the hepatocyte nuclei and the parasites. Parasitemia was set as the ratio between parasite number (Alexa fluor positive) and the hepatocyte nuclei count, determined at the same time.
(§3) When an infected mosquito bites a host, ∼100 sporozoites may be injected into the dermis from where they rapidly invade liver cells,[33]. This infective step represents the second bottleneck during transmission and therefore another potentially vulnerable point for intervention. In the absence of a practical liver stage assay measuring the formation of P. falciparum/P. vivax liver schizonts, an equivalent assay was developed in P. yoelii and used to assess the activity of the collection of molecules against this specific stage. Specifically, P. yoelii sporozoites were dissected from the salivary glands of infected mosquitoes and were allowed to invade human hepatocarcinoma cells expressing the CD81 protein. The development of the liver schizonts was monitored by immunofluorescence staining using an HSP70 antibody specific to the parasite (Figure 4A).
Figure 4 Validation and results of anti-infectives tested against P. yoelii liver stage parasites. (A) Opera-generated images from a time point experiment using a 20× objective lens. P. yoelii parasites (red) were visualized using a mouse polyclonal HSP70 antibody, and the HepG2 cells (green) were stained with Hoechst 33342 nucleic acid dye. […] (B) A dose response plot with atovaquone from data generated from the Opera imaging system. The median areas of compound-treated parasites were compared to untreated DMSO controls to determine the degree of inhibition.

[3] = system: P. falciparum mature gametocytes / male gamete exflagellation; assay: P. falciparum exflagellation assay; format: cell-based, Plasmodium falciparum; details: for inhibition at 10 µM: Plasmodium falciparum
Method: After 24 h, exflagellation was triggered by a temperature decrease to ∼21°C and observed 20 min later under the microscope. Highly motile exflagellation centres were recorded for ∼50–150 adjacent fields of view and reported per 10,000 RBCs.
(A) Assays examined exflagellation (P. falciparum), ookinete formation (P. berghei), or oocyst formation (P. falciparum). All antimalarials were screened at 10 µM. (B) The biological content of the in vitro P. berghei ookinete assay spans gamete formation, fertilization, zygote development, and ookinete formation. […] (D) The in vitro P. falciparum exflagellation assay exposes mature gametocytes to antimalarials for 24 h before triggering exflagellation. […] All experiments in triplicate. (E) The in vivo P. falciparum oocyst assay differs from the P. berghei oocyst assay in that mature gametocytes were exposed to the antimalarials in culture for 24 h before feeding to mosquitoes.

[4] = system: HepG2 cells; assay: Growth retardation of HepG2 cells; details: for IC50: Homo sapiens, HepG2, read-out: IC50 HepG2
Method: as §1, §2, §3

[5] = asexual blood stage, both drug-resistant and -sensitive strains, read-out: IC50
[6] = HepG2, box linked to liver schizont, read-out: IC50 (liver schizont, Figure 5)
[7] = HepG2, dose response, median parasite area (Opera), read-out: IC50 liver stage
[8] = 10 µM, 24 h exposure of mature gametocytes
[9] = HepG2, development of P. yoelii liver schizonts following infection of HepG2 cells, read-out: IC50 Parasite
[10] = read-out: inhibition of exflagellation, 10 µM, 24 h exposure of mature gametocytes
[11] = asexual blood stage, all parasite lines, read-out: IC50
[12] = HepG2, dose response, read-out: IC50 liver stage
[13] = 10 μM, box linked to gametocytes/exflagellation, read-out: Inhibition at 10 μM (gametocytes/exflagellation, Figure 5)
[14] = asexual blood stage, all parasite lines

COc1cc(Cc2cnc(N)nc2N)cc(OC)c1OC [trimethoprim]
IC50 [1, 5]: 1000 to 10000 nM

C=C[C@H]1C[N@@]2CC[C@H]1C[C@@H]2[C@@H](O)c1ccnc2ccc(OC)cc12 [quinidine]
IC50 [2, 6]: < 1000 nM | potency range against liver stages [2]: submicromolar potencies

CC1(C)N=C(N)N=C(N)N1c1ccc(Cl)cc1 [cycloguanil]
IC50 ([1]; Erythrocyte, read-out: IC50 (erythrocyte schizont, Figure 5), box linked to blood stage schizont): < 4 nM | fold loss of potency ([1]; between sensitive and resistant strains): ≥ 100 fold | IC50 [2, 6]: < 1000 nM | IC50 [2, 7]: < 10 nM

CCN(CC)CCCC(C)Nc1ccnc2cc(Cl)ccc12 (stereo not drawn) [chloroquine]
fold reduction in potency [1]: 6–100 fold | enhancement (stimulation) of exflagellation [3, 8]: at least 20%

CC(=O)N(O)CCCCCNC(=O)CCC(=O)N(O)CCCCCNC(=O)CCC(=O)N(O)CCCCCN [deferoxamine]
IC50 [2, 6]: < 1000 nM | potency range against liver stages [2]: submicromolar potencies

CCN(CCO)CCCC(C)Nc1ccnc2cc(Cl)ccc12 (stereo not drawn) [hydroxychloroquine]
fold reduction in potency [1]: 6–100 fold | enhancement (stimulation) of exflagellation [3, 8]: at least 20%

OC(c1cc(C(F)(F)F)nc2c(C(F)(F)F)cccc12)C1CCCCN1 (racemic) [racemic mefloquine, mefloquine]
IC50 [4]: 1730 ± 600 nM | CI (cytotoxicity index) ([4]; human, 48 h): 1.02 | IC50 [1]: < 10 nM | IC50 [2, 9]: 1690 ± 1450 nM

COc1cc(NC(C)CCCNC(C)=C2CCOC2=O)c2ncccc2c1 (stereo not drawn) [bulaquine]
IC50 [1, 5]: 500 to 2500 nM

CCN(CC)CCCC(C)Nc1cc(OC)cc2cccnc12 (stereo not drawn) [diethylprimaquine]
IC50 [1, 5]: 500 to 2500 nM | inhibition at 10 µM [3, 10]: > 70%

CCN(CC)Cc1cc(Nc2ccnc3cc(Cl)ccc23)ccc1O [amodiaquine]
IC50 [1, 11]: 2 to 10 nM | resistance / retention of potency against resistant strains [1]: do not lose potency when tested against chloroquine resistant strains | IC50 [2, 12]: < 3000 nM | effect on exflagellation (words) [3, 8]: inhibited P. falciparum exflagellation | inhibition at 10 µM [3, 13]: > 60%

CC(C)(C)NCc1cc(Nc2ccnc3cc(Cl)ccc23)c2c(c1O)CCCC2 [naphthoquine]
IC50 [1, 14]: 2 to 10 nM | resistance / retention of potency against resistant strains [1]: do not lose potency when tested against chloroquine resistant strains | IC50 [2, 6]: < 1000 nM | IC50 [2, 12]: < 3000 nM

CCN(CC)CCCNc1ccnc2cc(Cl)ccc12 [AQ-13]
IC50 [2, 12]: < 3000 nM

Clc1ccc2c(N3CCN(CCCN4CCN(c5ccnc6cc(Cl)ccc56)CC4)CC3)ccnc2c1 [piperaquine]
IC50 [1, 14]: 2 to 10 nM | resistance / retention of potency against resistant strains [1]: do not lose potency when tested against chloroquine resistant strains

Cc1cc(NS(=O)(=O)c2ccc(N)cc2)no1 [sulfamethoxazole]
inhibition at 10 µM [3, 10]: > 80% | inhibition at 10 µM [3, 13]: > 60%

CCc1nc(N)nc(N)c1OCCCOc1ccccc1CCC(=O)O [P218]
IC50 [2, 6]: < 1000 nM | IC50 [2, 7]: < 10 nM

C[C@H]1[C@H](OC(=O)CCC(=O)O)O[C@@H]2O[C@@]3(C)CC[C@H]4[C@H](C)CC[C@@H]1[C@@]24OO3 [artesunate]
IC50 [1, 11]: 1 to 15 nM | IC50 [2, 6]: < 1000 nM

N=C(N)c1ccc(OCCCCCOc2ccc(C(=N)N)cc2)cc1 [Pentamidine]
IC50 [4]: 3750 ± 1100 nM | CI (cytotoxicity index) ([4]; human, 48 h): 1.52 | IC50 [2, 9]: 2460 ± 570 nM

C[C@]12CC[C@H](O)CC1=CC[C@@H]1[C@@H]2CC[C@]2(C)C(=O)CC[C@@H]12 [dehydroepiandrosterone]
IC50 ([1]; asexual blood stage, both drug-resistant and -sensitive strains): 1000 to 10000 nM

COc1cc(NC(C)CCCN)c2ncccc2c1 (stereo not drawn) [primaquine]
IC50 [1]: 500 to 2500 nM | enhancement (stimulation) of exflagellation [3, 8]: 15%

C[C@H]1[C@H](N2CCS(=O)(=O)CC2)O[C@@H]2O[C@@]3(C)CC[C@H]4[C@H](C)CC[C@@H]1[C@@]24OO3 [artemisone]
IC50 [2, 6]: < 1000 nM | IC50 [2, 7]: < 100 nM

[H]/N=C(\N/C(=N/[H])Nc1ccc(Cl)cc1)NC(C)C [proguanil]
IC50 [4]: 15400 ± 3090 nM | CI (cytotoxicity index) ([4]; IC50 HepG2 compared to IC50 parasite): 1.31 | IC50 [1, 5]: 1000 to 10000 nM | IC50 [2, 9]: 11800 ± 5190 nM

CN(C)c1ccc2nc3ccc(=[N+](C)C)cc-3sc2c1 [methylene blue]
IC50 [2, 6]: < 1000 nM | IC50 [2, 7]: < 100 nM

C[C@@H]1CC[C@H]2[C@@H](C)C(=O)O[C@@H]3O[C@@]4(C)CC[C@@H]1[C@]32OO4 [artemisinin]
IC50 [1, 11]: 1 to 15 nM

CC(C)(C)NCc1ccc(Nc2ccnc3cc(Cl)ccc23)cc1O [tert-butyl-isoquine]
IC50 [1, 14]: 2 to 10 nM | resistance / retention of potency against resistant strains [1]: do not lose potency when tested against chloroquine resistant strains | effect on exflagellation (words) [3, 8]: inhibited P. falciparum exflagellation | effect on exflagellation (words) ([3]; 10 µM, 24 h exposure of mature gametocytes, listed as tert-butyl isoquine): inhibited exflagellation totally | inhibition at 10 µM [3, 13]: > 60%

Cc1cc2nc3c(=O)[nH]c(=O)nc-3n(C[C@H](O)[C@H](O)[C@H](O)CO)c2cc1C [riboflavin]
IC50 [1, 5]: 1000 to 10000 nM

CC[C@H]1OC(=O)[C@H](C)[C@@H](O[C@H]2C[C@@](C)(OC)[C@@H](O)[C@H](C)O2)[C@H](C)[C@@H](O[C@@H]2O[C@H](C)C[C@H](N(C)C)[C@H]2O)[C@](C)(O)C[C@@H](C)CN(C)[C@H](C)[C@@H](O)[C@]1(C)O [azithromycin]
IC50 [1, 5]: 1000 to 10000 nM
